System: primary HSCs
Settings: mRNA-Seq expression

Cc1sc2c(c1C)C(c1ccc(Cl)cc1)=N[C@@H](CC(=O)OC(C)(C)C)c1nnc(C)n1-2 [JQ1, (S)-tert-butyl 2-(4-(4-chlorophenyl)-2,3,9-trimethyl-6H-thieno[3,2-f][1,2,4]triazolo[4,3-a][1,4]diazepin-6-yl)acetate]
value_2, gene Kcnab1 (Day_6_JQ1): 5.987
value_2, gene Kctd11 (Day_6_JQ1): 40.3428
value_2, gene Kidins220 (Day_6_JQ1): 34.7188
value_2, gene Lamb1 (Day_6_JQ1): 116.83
value_2, gene Large (Day_6_JQ1): 40.5667
value_2, gene Lass6 (Day_6_JQ1): 16.8557
value_2, gene Lbh (Day_6_JQ1): 311.939
value_2, gene Lrp1 (Day_6_JQ1): 247.494
value_2, gene Lynx1 (Day_6_JQ1): 16.3298
value_2, gene Maged1 (Day_6_JQ1): 209.848
value_2, gene Map1lc3a (Day_6_JQ1): 83.7075
value_2, gene Marveld1 (Day_6_JQ1): 50.0393
value_2, gene Mmab (Day_6_JQ1): 8.1326
value_2, gene Morc4 (Day_6_JQ1): 8.504
value_2, gene Mpp6 (Day_6_JQ1): 75.1224
value_2, gene Mxra8 (Day_6_JQ1): 126.008
value_2, gene Mypop (Day_6_JQ1): 8.4789
value_2, gene Nans (Day_6_JQ1): 59.0594
value_2, gene Ngfrap1 (Day_6_JQ1): 196.152
value_2, gene Nxn (Day_6_JQ1): 73.7521
value_2, gene Ogn (Day_6_JQ1): 68.5101
value_2, gene Olfml3 (Day_6_JQ1): 169.404
value_2, gene Oxct1 (Day_6_JQ1): 46.8229
value_2, gene Palm (Day_6_JQ1): 43.4603
value_2, gene Parva (Day_6_JQ1): 84.643
value_2, gene Pbxip1 (Day_6_JQ1): 66.9739
value_2, gene Pcbp4 (Day_6_JQ1): 31.1679
value_2, gene Pde5a (Day_6_JQ1): 4.315
value_2, gene Pdk3 (Day_6_JQ1): 17.7734
value_2, gene Pdlim5 (Day_6_JQ1): 120.722
value_2, gene Pdrg1 (Day_6_JQ1): 77.2251
value_2, gene Pdzrn3 (Day_6_JQ1): 35.4736
value_2, gene Pgp (Day_6_JQ1): 55.4841
value_2, gene Pgrmc1 (Day_6_JQ1): 110.711
value_2, gene Plcxd2 (Day_6_JQ1): 8.321
value_2, gene Plk4 (Day_6_JQ1): 7.27
value_2, gene Ppic (Day_6_JQ1): 178.683
value_2, gene Pqlc3 (Day_6_JQ1): 21.232
value_2, gene Prdx4 (Day_6_JQ1): 90.3086
value_2, gene Prkab2 (Day_6_JQ1): 26.0507
value_2, gene Prr11 (Day_6_JQ1): 6.831
value_2, gene Prrx1 (Day_6_JQ1): 33.6888
value_2, gene Ptk7 (Day_6_JQ1): 33.1681
value_2, gene Ptprs (Day_6_JQ1): 25.6268
value_2, gene Rab11fip5 (Day_6_JQ1): 18.6008
value_2, gene Rbfox2 (Day_6_JQ1): 31.4181
value_2, gene Rbms3 (Day_6_JQ1): 14.5408
value_2, gene Rhou (Day_6_JQ1): 27.2789
value_2, gene Rrm1 (Day_6_JQ1): 37.9825
value_2, gene Rsu1 (Day_6_JQ1): 115.627
value_2, gene Sepn1 (Day_6_JQ1): 53.0761
value_2, gene Shisa4 (Day_6_JQ1): 29.5421
value_2, gene Sidt2 (Day_6_JQ1): 85.8124
value_2, gene Sil1 (Day_6_JQ1): 25.0211
value_2, gene Smpd1 (Day_6_JQ1): 40.8765
value_2, gene Snx7 (Day_6_JQ1): 31.6545
value_2, gene Sparc (Day_6_JQ1): 3945.98
value_2, gene St3gal2 (Day_6_JQ1): 27.017
value_2, gene St6galnac6 (Day_6_JQ1): 21.1878
value_2, gene Ston1 (Day_6_JQ1): 80.759
value_2, gene Suox (Day_6_JQ1): 13.7986
value_2, gene Synpo (Day_6_JQ1): 128.3
value_2, gene Tln2 (Day_6_JQ1): 10.7793
value_2, gene Tmem176b (Day_6_JQ1): 232.156
value_2, gene Tubb2a (Day_6_JQ1): 56.747
value_2, gene Tulp4 (Day_6_JQ1): 15.6577
value_2, gene Tyms (Day_6_JQ1): 9.8
value_2, gene Unc5b (Day_6_JQ1): 142.372
value_2, gene Vcl (Day_6_JQ1): 188.104
value_2, gene Wbp5 (Day_6_JQ1): 336.924
value_2, gene Zfp449 (Day_6_JQ1): 5.689
4833442J19Rik value_2 (Day_6_JQ1) (primary HSCs, day 6 with JQ1): 5.928
4930583H14Rik value_2 (Day_6_JQ1) (primary HSCs, day 6 with JQ1): 0.6572
AA467197 value_2 (Day_6_JQ1) (primary HSCs, day 6 with JQ1): 1.792
AI427809 value_2 (Day_6_JQ1) (primary HSCs, day 6 with JQ1): 0.3782
Acta1 value_2 (Day_6_JQ1) (primary HSCs, day 6 with JQ1): 5.299
Actg2 value_2 (Day_6_JQ1) (primary HSCs, day 6 with JQ1): 9.747
Adamtsl2 value_2 (Day_6_JQ1) (primary HSCs, day 6 with JQ1): 0.6746
Ak4 value_2 (Day_6_JQ1) (primary HSCs, day 6 with JQ1): 2.207
Alox5ap value_2 (Day_6_JQ1) (primary HSCs, day 6 with JQ1): 1.8396
Angpt4 value_2 (Day_6_JQ1) (primary HSCs, day 6 with JQ1): 2.216
Aoc3 value_2 (Day_6_JQ1) (primary HSCs, day 6 with JQ1): 0.7708
Atp1a3 value_2 (Day_6_JQ1) (primary HSCs, day 6 with JQ1): 1.07
Bcat1 value_2 (Day_6_JQ1) (primary HSCs, day 6 with JQ1): 1.171
C1qtnf2 value_2 (Day_6_JQ1) (primary HSCs, day 6 with JQ1): 1.262
C1qtnf5 value_2 (Day_6_JQ1) (primary HSCs, day 6 with JQ1): 5.303
Cck value_2 (Day_6_JQ1) (primary HSCs, day 6 with JQ1): 0.3139
Ccl12 value_2 (Day_6_JQ1) (primary HSCs, day 6 with JQ1): 0.2748
Cdh3 value_2 (Day_6_JQ1) (primary HSCs, day 6 with JQ1): 1.477
Cdh6 value_2 (Day_6_JQ1) (primary HSCs, day 6 with JQ1): 0.764
Chd3 value_2 (Day_6_JQ1) (primary HSCs, day 6 with JQ1): 4.386
Chst11 value_2 (Day_6_JQ1) (primary HSCs, day 6 with JQ1): 22.6881
Cnn1 value_2 (Day_6_JQ1) (primary HSCs, day 6 with JQ1): 5.628
Col6a2 value_2 (Day_6_JQ1) (primary HSCs, day 6 with JQ1): 6.3149
Col6a3 value_2 (Day_6_JQ1) (primary HSCs, day 6 with JQ1): 7.234
Col7a1 value_2 (Day_6_JQ1) (primary HSCs, day 6 with JQ1): 0.5444
Col11a1 value_2 (Day_6_JQ1) (primary HSCs, day 6 with JQ1): 4.303
Col15a1 value_2 (Day_6_JQ1) (primary HSCs, day 6 with JQ1): 0.2832
Csdc2 value_2 (Day_6_JQ1) (primary HSCs, day 6 with JQ1): 0.913
Cthrc1 value_2 (Day_6_JQ1) (primary HSCs, day 6 with JQ1): 4.104
D430019H16Rik value_2 (Day_6_JQ1) (primary HSCs, day 6 with JQ1): 1.971
Def6 value_2 (Day_6_JQ1) (primary HSCs, day 6 with JQ1): 0.8624
Des value_2 (Day_6_JQ1) (primary HSCs, day 6 with JQ1): 14.4745
Dkk2 value_2 (Day_6_JQ1) (primary HSCs, day 6 with JQ1): 0.918
Dok5 value_2 (Day_6_JQ1) (primary HSCs, day 6 with JQ1): 1.203
Dpep1 value_2 (Day_6_JQ1) (primary HSCs, day 6 with JQ1): 0.6357

— US20180325914A1, “INCREASING STORAGE OF VITAMIN A, VITAMIN D AND/OR LIPIDS” (Salk Institute for Biological Studies, priority 2014, published 2018)
